The values that follow come from patent US20260151446A1, “IMPROVED ORAL BIOAVAILABILITY FORMULATION FOR MITRAGYNA SPECIOSA (KRATOM)” (priority 2022, published 2026).

The conditions of data set [1]: rats; delivered as a purified aqueous solution; cited from earlier work.
Data set [2] in a line: Proof of concept pharmacokinetic / bioavailability study, plasma mitragynine after single dose. The note with it: male rats. Format: in vivo, Sprague Dawley rats. As to the method:
Once the capsule formulation was finalized, a proof of concept and safety study was carried out in Sprague Dawley rats. Male and female rats (250±25 g) were purchased from Envigo (Indianapolis, IN, USA) with indwelling jugular vein cannulas and acclimated ≥72 h in a temperature- and humidity-controlled vivarium on a 12 h light/dark cycle. Study protocols were approved by the Institutional Animal Care and Use Committee (IACUC) at the University of Florida, which is fully accredited by the Association for Assessment and Accreditation of Laboratory Animal Care International (AAALAC) and were written in accordance with the National Institutes of Health (NIH) Guide for the Care and Use of Laboratory Animals.
Rats were fasted for 10 h prior to dosing and an additional 2 h post-dose. Rats were dosed with one size 9 gelatin capsule with fill weights of 19.5±0.5 mg, (about 5.1 mg kratom or 2.3 mg mitragynine). […] Rats were connected to an automatic blood collection system (Bioanalytical Systems Inc., West Lafayette, IN, USA) and blood samples were taken at pre-dose, 0.08, 0.17, 0.25, 0.5, 0.75, 1, 2, 4, 6, 8, 12, 18, and 24 h. At the completion of the study, plasma samples were separated by centrifugation at 850×g for 10 min at 4° C. and stored at −20° C. until analysis.
To process plasma (rat or dog) samples for analysis, 20 μL aliquots of each sample were taken. To prepare calibration standards (CS), 2.0 μL of mix stock were added to 18 μL of blank plasma. This generated eight standards of 2.5, 5, 25, 50, 100, 150, 250, and 500 ng/mL, in the respective plasma. The same process was used to generate the lower limit of quantification (LLOQ) (2.5 ng/mL), low quality control (LQC) (6.25 ng/mL), medium quality control MQC (200 ng/mL) and high quality control (HQC) (400 ng/mL). After spiking, the CS and QC samples were vortex mixed for 5 min at 650 rpm. Analytes were precipitated using 100 μL methanol acidified with 0.05% formic acid containing 50 ng/mL IS in a 1:4 ratio. The samples were then vortex mixed for 5 min at 650 rpm before being transferred to a 96-well Millipore Solvinert 0.45 μm filter plate (Burlington, MA, USA) and centrifuged at 850×g for 2 min at 4° C.
A previously reported UPLC-MS/MS method for the quantification of eleven kratom alkaloids was used to analyze all samples^13. Briefly, the mobile phase composed of aqueous ammonium acetate buffer (2.5 mM, pH 3.5, (A)) and acetonitrile (B). The gradient started at 90% A and 10% B, and A was decreased to 75% by 3.5 min and then to 60% by 10 min. […] An Acquity UPLC® BEH C18 column (1.7 μm, 2.1×100 mm) with a VanGuard precolumn of the same chemistry was used for separation (Waters, Milford, MA, USA). The UPLC-MS/MS was a Waters™ Acquity Class-I chromatograph coupled with a Xevo TQ-S Micro triple quadrupole mass spectrometer (Waters, Milford, MA, USA).
The TargetLynx™ application of MassLynx™ 4.2 was used for data processing and quantification of the UPLC-MS/MS data (Waters, Milford, MA, USA). Phoenix Version 6.4 (Certara, Princeton, NJ, USA) was used for the non-compartmental analysis using a linear log interpolation. Graphpad Prism Version 8 (GraphPad Software, San Diego, CA, USA) was used to plot the concentration-time profiles for each dataset. R Studio version 1.4.1717 was used for statistical analysis (R Foundation for Statistical Computing, Vienna, Austria).

For data set [3] the following is noted: single oral dose of 5 mg/kg mitragynine equivalent; female beagle dogs; cited from earlier work.
Where [4] appears, read: mitragynine in plasma, oral 20 mg/kg.

Consider `CC[C@@H]1CN2CCc3c([nH]c4cccc(OC)c34)[C@@H]2C[C@@H]1/C(=C\OC)C(=O)OC` [Mitragynine, mitragynine], for which the bioavailability of mitragynine in data set [1] is 17%. Moreover, the Tmax in data set [2] (Sprague Dawley, rat, in vivo, mitragynine in plasma, oral 20 mg/kg) worked out at 24 ± 6 min. In data set [2] (Sprague Dawley, rat, in vivo, mitragynine, oral 20 mg/kg), this compound registered a bioavailability of 37%. Moreover, in data set [2] (mitragynine in plasma, IV […]), the AUC/Dose was determined as 335 ± 16.5 µg·h/L/mg/kg. In data set [2] (setting [4]), this compound displayed an AUC/Dose of 122.4 ± 13.0 µg·h/L/mg/kg and a Cmax/Dose of 22.7 ± 4.9 µg/L/mg/kg. Besides, the tolerability result in data set [3] is “well tolerated”.
